Assays:
[1] = tested on: abdominal aortic aneurysm; experiment: Abdominal aortic aneurysm induction model, preventive forced administration (Examples 1 and 2); type: in vivo, rat; details: for Survival rate: Example 2, FIG. 1; for Diameter of the aorta in the abdominal aortic aneurysm induction part: Example 2, FIG. 2, after completion of the test, control group about 4 MM; for Rupture rate of abdominal aortic aneurysm: among rats with observed aneurysm, control group 28.6; for Rupture confirmed (abdominal aortic aneurysm) / Rupture not confirmed (abdominal aortic aneurysm): number of rats among rats with observed aneurysm
Experimental: SD-male rats of 4 weeks old (70 to 90 G) were used. Eighteen rats and eight rats were prepared as a control group and a medium chain fatty acid administration group, respectively.
Upon arrival, all rats were preliminarily fed normal feed without additional supplements for one week. Then, the medium chain fatty acid administration group was fed normal feed and forcibly administered with high-content neutral fats (decanoic acid occupied 98% of constituent fatty acids) in an amount of 1,145 MG/KG body-weight/day. The control group was fed normal feed and forcibly administered with water in an amount of 1,145 MG/KG body-weight/day.
In this test, the medium chain fatty acid was fed in the form of tricaprin. Tricaprin is a substance in which decanoic acid (C10), a linear saturated fatty acid having 10 carbon atoms, is bonded to glycerol. Thus, the high-content neutral fats are medium chain fatty acids of the present invention.
From the second week after the arrival, all rats were fed high-fat feed. Then, the medium chain fatty acid administration group was forcibly administered with the high-content neutral fats in an amount of 1,145 MG/KG body-weight/day in addition to the high-fat feed. Furthermore, the control group was forcibly administered with water in an amount of 1,145 MG/KG body-weight/day in addition to the high-fat feed.
Three weeks after the arrival, an abdominal aortic aneurysm induction treatment was performed. In the abdominal aortic aneurysm induction treatment, a catheter is inserted in the rat abdominal aorta and the inserted catheter is ligated with the abdominal aorta. The treatment was performed according to the method disclosed in PTL 3.
After that, for the next four weeks, the control group had been fed the high-fat feed and forcibly administered with water in an amount of 1,145 MG/KG body-weight/day. Furthermore, the medium chain fatty acid administration group had been fed the high-fat feed and forcibly administered with the high-content neutral fats. Then, four weeks after the abdominal aortic aneurysm induction treatment, the rats were dissected.
Note that the abdominal aortic aneurysm was determined to have occurred if the blood vessel at the site where the abdominal aortic aneurysm induction treatment was performed dilated to twice or more its original thickness.
Next, test results obtained by using tricaprin (an ester of three decanoic acids and glycerol) and tricaprylin (an ester of three octanoic acids of C8 and glycerol) as the medium chain fatty acid is shown. The animal model preparation method is the same as that in Example 1. A group in which tricaprin (C10) was given is referred to as a tricaprin administration group and a group in which tricaprylin (C8) was given is referred to as a tricaprylin administration group.
Twenty-three, eleven, and eighteen model animals were prepared as a control group, the tricaprylin administration group, and the tricaprin administration group, respectively.

[2] = tested on: abdominal aortic aneurysm; experiment: Regression of established abdominal aortic aneurysm, administration from Day 7 (Example 3); type: in vivo, rat
Experimental: SD-male rats of 4 weeks old (70 to 90 G) were used. The rats were subjected to the above-described abdominal aortic aneurysm induction treatment. On Day 7, the abdomen of the rat was opened to confirm the occurrence of an abdominal aortic aneurysm, the vessel diameter was measured, and then the abdomen was closed. Subsequently, a control group was fed normal feed and water, while a tricaprin administration group was fed tricaprin in an amount of 1,145 MG/KG/day in addition to the normal feed.
Seven days after the abdominal closure (Day 14 after the abdominal aortic aneurysm induction treatment), the abdomen was opened again, and the blood vessel diameter was measured. Some rats of the control group were not subjected to laparotomy on Day 14 and continued to be fed normal feed and water. The amount of the neutral fats in the blood vessel, the amount of lipids in the blood, the blood glucose level, and the body weight were measured from the day when the abdominal aortic aneurysm induction treatment was performed.
FIGS. 3(A), 3(B), and 3(C) show the control group (depicted as “CONTROL”), and FIGS. 3(D), 3(E), and 3(F) show the tricaprin administration group (depicted as “C10-TG”).
Photographs under “DAY 0” are photographs taken when the abdominal aortic aneurysm induction treatment was performed (FIG. 3(A) and FIG. 3(D)). […]

[3] = Example 2, number of rats (tricaprylin 11, tricaprin 18 animals)
[4] = Example 2, number of rats (tricaprylin 11, tricaprin 18 animals), dilated to twice or more original thickness

SMILES | Survival rate ([1]; until Day 26 after induction treatment, control declined on Day 17) [%] | Diameter of the aorta in the abdominal aortic aneurysm induction part [1] | Rupture rate of abdominal aortic aneurysm ([1]; Example 2) [%] | Frequency of occurrence of abdominal aortic aneurysm ([1]; Example 2, control group 30.4) [%] | Occurrence not confirmed (abdominal aortic aneurysm) [1, 3] | Occurrence confirmed (abdominal aortic aneurysm) [1, 4] | Rupture confirmed (abdominal aortic aneurysm) ([1]; Example 2) | Rupture not confirmed (abdominal aortic aneurysm) ([1]; Example 2) | Maximum aneurysm diameter ([2]; Day 14, 1,145 MG/KG/day from Day 7, 2.79 MM on Day 7 before administration, control 2.81 to 3.59 MM) [MM] | Weight gain rate versus control group ([2]; Example 3, measured from the day of induction treatment) | Frequency of occurrence of abdominal aortic aneurysm ([1]; Example 1, 1,145 MG/KG body-weight/day, control group 38.9) [%] | Rupture rate of abdominal aortic aneurysm ([1]; Example 1) [%] | Rupture confirmed (abdominal aortic aneurysm) ([1]; Example 1) | Rupture not confirmed (abdominal aortic aneurysm) ([1]; Example 1) | Occurrence not confirmed (abdominal aortic aneurysm) ([1]; Example 1, number of rats of 8, 1,145 MG/KG body-weight/day forced administration, high-fat feed, dissected four weeks after induction) | Occurrence confirmed (abdominal aortic aneurysm) ([1]; Example 1, number of rats of 8, vessel dilated to twice or more its original thickness, 1,145 MG/KG body-weight/day) | Survival rate ([1]; during the test period) [%]
CCCCCCCC(=O)OCC(COC(=O)CCCCCCC)OC(=O)CCCCCCC [Tricaprylin, tricaprylin] | 100 | about 3.5 MM | 33.3 | 27.3 | 8 | 3 | 1 | 2 | – | – | – | – | – | – | – | – | –
CCCCCCCCCC(=O)OCC(COC(=O)CCCCCCCCC)OC(=O)CCCCCCCCC [Tricaprin, tricaprin] | – | about 2.2 MM | 0 | 5.6 | 17 | 1 | 0 | 1 | 1.89 | no difference | 12.5 | 0 | 0 | 1 | 7 | 1 | 100

— patent publication US20260207537A1, “PHARMACEUTICAL COMPOSITION FOR PREVENTION AND TREATMENT OF AORTIC ANEURYSM, AND PROCESSED FOOD” (priority 2020, published 2026)
